Consider one compound from US20200289434A1, “RAPIDLY IMPROVING ENDOTHELIAL FUNCTION, REDUCING ARTERIAL STIFFNESS AND REVERSING CALCIFICATION OF BLOOD VESSELS BY ADMINISTERING VITAMIN K” (KAYDENCE PHARMA AS, priority 2019, published 2020).

The data set relates to thrombin generation in platelet-poor mice plasma. In words: Example 3 second part: thrombin generation by calibrated automated thrombogram (CAT). Type of data set: in vivo. The settings on record: eight weeks, either dose. How it is done:
Thrombin generation was measured in platelet-poor mice plasma using calibrated automated thrombography (CAT) technique as described in Hemker H C, Giesen P, Al Dieri R, Regnault V, de Smedt E, Wagenvoord R, et al. Calibrated automated thrombin generation measurement in clotting plasma. Pathophysiol Haemost Thromb 2003; 33:4-15. doi:71636. Thrombin generation was activated by mixing 21 μL of diluted plasma (1:1 with BSA5 buffer) with 7 pIL of fluorogenic substrate (Z-Gly-Gly-Arg-AMC, 16.6 mM) and 14 μL of trigger solution containing phospholipids, tissue factor and CaCl2) (4 μM, […] and 16.6 mM, respectively). In the calibration wells, the 14 μL of reagents were replaced with calibrator (102 nM). Immediately after the activation, 5 μL of the mixture was pipetted on paper disks in a flat bottom 96-well polystyrene plate and covered with 40 μL of mineral oil. Fluorescent signals were measured using the Fluoroskan Ascent software (Thermo Labsystems, Helsinki, Finland) and transformed into thrombin concentration as described in Hemker H C, Kremers R. Data management in Thrombin Generation. Thromb Res 2013; 131:3-11. doi:10.1016/j.thromres.2012.10.011. The parameters analyzed included endogenous thrombin potential (ETP), peak thrombin concentration (peak), and lag time.

Consider `CC(C)=CCC/C(C)=C/CC/C(C)=C/CC/C(C)=C/CC/C(C)=C/CC/C(C)=C/CC/C(C)=C/CC1=C(C)C(=O)c2ccccc2C1=O` [MK-7, menaquinone-7], for which the thrombin generation result was “did not affect”.
